From PubChem BioAssay (NCI)
“And” between values parts separate entries of the source, which are not always exact repeats. Identical values can stand only once.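 Five concentrations, 48 hours, 96-well plates. The concentration for 50% growth inhibition is given as GI50. TGI denotes the concentration required for complete inhibition of growth.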 Where a SMILES comes first, the peptide text is derived from it. Bridges are numbered along the chain shown (N, C = ends).

Assays:
Experiment in all cases: NCI anticancer screen, dose series, 48 h
ACHN renal = test system: ACHN renal
LOX IMVI melanoma = test system: LOX IMVI melanoma
MALME-3M melanoma = test system: MALME-3M melanoma
MOLT-4 leukemia = test system: MOLT-4 leukemia
NCI-H460 lung = test system: NCI-H460 lung
SF-539 CNS = test system: SF-539 CNS
SW-620 colon = test system: SW-620 colon
UACC-62 melanoma = test system: UACC-62 melanoma
MDA-MB-231 breast = test system: MDA-MB-231 breast
NCI/ADR-RES ovarian = test system: NCI/ADR-RES ovarian

| Structure (SMILES) | TGI (ACHN renal) | TGI (LOX IMVI melanoma) | TGI (MALME-3M melanoma) | TGI (MOLT-4 leukemia) | TGI (NCI-H460 lung) | TGI (SF-539 CNS) | TGI (SW-620 colon) | TGI (UACC-62 melanoma) | GI50 (ACHN renal) | GI50 (LOX IMVI melanoma) | GI50 (MALME-3M melanoma) | GI50 (MDA-MB-231 breast) [µM] | TGI (MDA-MB-231 breast) | GI50 (NCI-H460 lung) | GI50 (NCI/ADR-RES ovarian) [µM] | TGI (NCI/ADR-RES ovarian) [µM] | GI50 (SF-539 CNS) | GI50 (SW-620 colon) | GI50 (UACC-62 melanoma) | GI50 (MOLT-4 leukemia) |
| --- | --- | --- | --- | --- | --- | --- | --- | --- | --- | --- | --- | --- | --- | --- | --- | --- | --- | --- | --- | --- |
| CC1=C(C(=O)Nc2ccccc2C)C(c2ccccc2O)C(C(=O)Nc2ccccc2C)=C(C)N1 | 47.9 µM | 44.6 µM | 92.4 µM | > 100 µM | 31.1 µM | 36.5 µM | > 100 µM | 35.7 µM | – | – | – | – | – | – | – | – | – | – | – | – |
| CCCc1nn(C)c(CCC(=O)N(Cc2ccccc2)Cc2ccccc2)c1CC | > 100 µM | > 100 µM | > 100 µM | – | > 100 µM | > 100 µM | > 100 µM | > 100 µM | – | – | – | – | – | – | – | – | – | – | – | – |
| CC(=O)OC(C)(C)C[N+](=O)[O-] | > 100 µM | > 100 µM | > 100 µM | > 100 µM | > 100 µM | > 100 µM | > 100 µM | – | – | – | – | – | – | – | – | – | – | – | – | – |
| C#Cc1cccc(Nc2ncnc3ccc(-c4cnc(N)nc4)cc23)c1 | 10.3 µM | 11.3 µM | 12.7 µM | – | 14 µM | 11.9 µM | 17.7 µM | 11.4 µM | 0.542 µM | 2.78 µM | 1.73 µM | 2.05 | 11 µM | 2.95 µM | 4.09 | 36.4 | 2.81 µM | 4.23 µM | 1.83 µM | – |
| O=C(CCN1CCCC1)Nc1ccc2c(Nc3ccc(Br)cc3)c3ccccc3nc2c1 | 2.48 µM | 2.24 µM | 3.09 µM | – | 1.55 µM | 2.95 µM | 2.64 µM | 3.12 µM | 1.23 µM | 1 µM | 1.62 µM | 1.57 | 2.99 µM | 0.337 µM | – | – | 1.55 µM | 1.24 µM | 1.64 µM | – |
| CCCCCC1CC=CC(NC(=O)OCc2ccccc2)C1/C=C/CCCC1OCCO1 (stereo unspecified) | > 100 µM | > 100 µM | > 100 µM | > 100 µM | > 100 µM | > 100 µM | > 100 µM | > 100 µM | – | – | – | – | – | – | – | – | – | – | – | – |
| COC(=O)/C=C(C)/C=C/c1c(C)c(C(C)=O)c(C)n1C | > 100 µM | > 100 µM | > 100 µM | > 100 µM | – | > 100 µM | > 100 µM | > 100 µM | – | – | – | – | – | – | – | – | – | – | – | – |
| CCc1cc2c(Nc3ccccc3)c3c(nc2s1)CCCC3 | > 100 µM | 42 µM | > 100 µM | > 100 µM | > 100 µM | > 100 µM | > 100 µM | > 100 µM | – | – | – | – | – | – | – | – | – | – | – | – |
| C=C1C(=O)O[C@H]2C3OC3(C)CC/C=C(/C(=O)OC)[C@@H](OC(C)=O)[C@H](OC(=O)C3(C)OC3C)[C@H]12 (stereo partly specified) | 6.36 µM and 3.12 µM and 2.75 µg/mL | 2.74 µM and 2.7 µM | 4.35 µM and 0.941 µM | 938 nM and 1.17 µg/mL | 11.1 µM and 9.89 µg/mL | 7.5 µM and 6.28 µM and 7.06 µg/mL | 3.47 µM and 1.4 µM and 0.762 µg/mL | 3.01 µM and 3.64 µg/mL | 2.07 µM and 434 nM and 0.944 µg/mL | 1.36 µM and 1.24 µM | 1.25 µM and 0.257 µM | 1.23 | 5.9 µM and 4.71 µM | 3.13 µM and 3.6 µg/mL | – | – | 2.88 µM and 1.98 µM and 3.21 µg/mL | 422 nM and 350 nM and 0.302 µg/mL | 1.59 µM and 1.66 µg/mL | 216 nM and 0.323 µg/mL |
| O=C(O)C1C2C=CC(O2)C1C(=O)NCc1ccncc1 (stereo unspecified) | > 100 µM | > 100 µM | > 100 µM | – | > 100 µM | > 100 µM | > 100 µM | > 100 µM | – | – | – | – | > 100 µM | – | – | – | – | – | – | – |
| CCN(CC)CCCNc1nccc2c(C)c3[nH]c4ccncc4c(=O)c3cc12 | 13 µM | 3.26 µM | 14.8 µM | 2.51 µM | 7.04 µM | 11.2 µM | 16.1 µM | 3.72 µM | – | – | – | – | – | – | – | – | – | – | – | – |
| CCC(C)C1NC(=O)C(CC(C)C)NC(=O)C(C(C)C)NC(=O)C2CSSCC(NC1=O)C(=O)N2 (stereo unspecified) (cyclo(CCVLI); disulfide 1-2; configuration not given here) | 1.82 µM | 0.239 µM | – | – | 0.26 µM | 0.316 µM | – | 0.228 µM | – | – | – | – | 0.233 µM | – | – | > 100 | – | – | – | – |
| Nc1nc(N)c(CCCCc2ccccc2)c(/C=C/c2ccc([N+](=O)[O-])cc2)n1 | 18.2 µM | 13.5 µM | 9.17 µM | 4.16 µM | 39.5 µM | 5.62 µM | 5.91 µM | 7.46 µM | – | – | – | – | – | – | – | – | – | – | – | – |
| O=c1oc2c(O)c(O)cc3c(=O)oc4c(O)c(O)cc1c4c23 | > 100 µM | > 100 µM | – | > 100 µM | > 100 µM | – | > 100 µM | > 100 µM | – | – | – | – | – | – | – | – | – | > 100 µM | – | > 100 µM |
| C=C(C)C1CC=C(C)C(O)([C@@]2(O)C[C@H](C(=C)C)CC=C2C)C1 (stereo partly specified) | 47.7 µM | 26.9 µM | 81.8 µM | 43.9 µM | 34.6 µM | 42.1 µM | > 100 µM | 55.9 µM | – | – | – | – | – | – | – | – | – | – | – | – |
| CC[C@@]1(O)C(=O)OCc2c1cc1n(c2=O)Cc2cc3cccc(N)c3nc2-1 | 10.3 µM | 37.2 µM | > 100 µM | > 100 µM | 11.2 µM | 17 µM | – | 31.7 µM | 2.81 µM | 4.19 µM | 84.5 µM | – | – | 1.38 µM | – | – | 3.7 µM | – | 4.74 µM | 2.35 µM |
| CCC1=CCC(P(=O)(c2ccccc2)c2ccccc2)CC1C (stereo unspecified) | – | > 100 µM | > 100 µM | 46.2 µM | > 100 µM | > 100 µM | > 100 µM | > 100 µM | – | – | – | – | – | – | – | – | – | – | – | – |
| CC1(C)C2=CCCC(=O)[C@@]2(C)CC[C@@H]1O | > 100 µM | > 100 µM | – | > 100 µM | > 100 µM | > 100 µM | > 100 µM | > 100 µM | – | – | – | – | – | – | – | – | – | – | – | – |
| CCCCCCCCCCCCCC(=O)NO | 39.3 µM | 15.5 µM | 83.8 µM | > 49 µM | 38.3 µM | 37.9 µM | 82.6 µM | 11.5 µM | – | – | – | – | > 100 µM | – | – | – | – | – | – | – |
| O=C(CO)CC(=O)C(=O)Nc1cccc(C(F)(F)F)c1 | > 100 µM | > 100 µM | > 100 µM | > 100 µM | > 100 µM | > 100 µM | > 100 µM | > 100 µM | – | – | – | – | – | – | – | – | – | – | – | – |
| COc1ccc(C(=O)Nc2ccn(CCOC(=O)c3ccc(OC)cc3)c(=O)n2)cc1 | > 100 µM | > 100 µM | > 100 µM | – | > 100 µM | > 100 µM | > 100 µM | > 100 µM | – | – | – | – | – | – | – | – | – | – | – | – |
